Assay results reported in US20250179047A1, “5-[7-(3,4-DIHYDRO-1H-ISOQUINOLINE-2-CARBONYL)-1,2,3,4 TETRAHYDROISOQUINOLIN-6-YL]-1H-PYRROLE-3-CARBOXAMIDE DERIVATIVES, PHARMACEUTICAL COMPOSITIONS CONTAINING THEM AND THEIR USES AS PRO-APOPTOTIC AGENTS” (LES LABORATOIRES SERVIER, priority 2022, published 2025).

What was measured:
BCL2 F104I = BCL2 F104I (Homo sapiens, UniProt P10415, F104I); test: TR-FRET competitive binding assay, BCL2 F104I; settings: Ki determined from IC50, read-out: TR_FRET EKI_Bcl2 F104I
How it was run: (§1)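 Ki derived from IC50 (11-point dilution, 520/495 nm emission ratio) for displacing a fluorescein-labelled PUMA peptide (2 or 20 nM). Target was 0.5 nM E. coli-expressed Halo-tagged BCL2 (1-207) or BCLXL (2-196), terbium-labelled on Halo. Incubation 2 h at 23°C in pH 7.5 Hepes with 150 mM NaCl and 5% DMSO.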

[1] = Pharmacokinetics in SCID mice; format: in vivo; settings: 25 mg/kg IV bolus; for PK parameters Cinf: concentration at the end of bolus administration; for AUC: mouse, blood, area under curve over 24 h, read-out: PK parameters AUC24
Experimental: (§2) Pharmacokinetic (PK) and platelet toxicity were investigated in SCID mice. Compounds were administered at 25 mg/kg by IV bolus, and formulated in PEG/Ethanol/NaCl 0.9% (40/10/50 v/v/v).
(§3) Blood samples (3 animals/time point and 3 time points/animal) were collected over 24 h after dosing: 0.05 h, 0.5 h, 1 h, 3 h, 6 h and 24 h for PK and 6 h and 24 h for platelets.
(§4) PK samples were analyzed by liquid chromatography using tandem mass spectrometry detection (LC-MS/MS) and platelet count (109/L) was measured using an hematology analyzer. Percentage of platelet loss was calculated at both time points (T+6 h and 24 h) as compared to a control group of 6 animals. PK parameters (Cinf and AUC24, which correspond to the concentration at the end of bolus administration and the area under curve over 24 h, respectively) were also determined using a non-compartmental analysis.

BCL2 G101V [2] = test: TR-FRET competitive binding assay, BCL2 G101V; parameters: species or system human; settings: ratio Ki BCL2 G101V / Ki BCL2 WT
How it was run: as §1

BCL2 G101V [3] = target: BCL2 G101V (Homo sapiens, UniProt P10415, G101V); test: TR-FRET competitive binding assay, BCL2 G101V; settings: BCL2 G101V; Ki determined from IC50; read-out: TR_FRET EKI_Bcl2 G101V
How it was run: as §1

KMS-12-PE Bcl-2 WT = test: In vitro cytotoxicity CellTiter-Glo 48 h, KMS-12-PE Bcl-2 WT; format: cell-based; settings: Homo sapiens, KMS-12-PE, C50 = concentration needed to reach 50% of the cellular viability
How it was run: (§5)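 Transduce KMS-12-PE with Bcl-2 WT or G101V lentivirus, then FACS-sort RFP-positive cells. Add compounds in an 11-point dilution series and incubate 48 h at 37 °C. Measure ATP-based luminescence with CellTiter-Glo and derive C50 (50% viability).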

BCL2 WT = BCL2 WT (Homo sapiens (Human), UniProt P10415); test: TR-FRET competitive binding assay, BCL2 WT; settings: Ki determined from IC50, read-out: TR_FRET EKI_Bcl2 WT
How it was run: as §1

platelets = test: Platelet depletion in SCID mice; format: in vivo; settings: 25 mg/kg IV bolus, vs control group; for Platelet loss (%) 6 h: 6 h after dosing; for Platelet loss (%) 24 h: 24 h after dosing
Experimental: as §2, §3, §4

KMS-12-PE Bcl-2 G101V = test: In vitro cytotoxicity CellTiter-Glo 48 h, KMS-12-PE Bcl-2 G101V; format: cell-based; settings: for Ratio (G101V/WT): C50 KMS-12-PE Bcl-2 G101V over C50 KMS-12-PE Bcl-2 WT; for IC50: Homo sapiens, KMS-12-PE, 48 h, CellTiter-Glo, C50 = concentration needed to reach 50% of the cellular viability
How it was run: as §5

BCLXL WT = BCLXL WT (Homo sapiens (Human), UniProt Q07817); test: TR-FRET competitive binding assay, BCLXL WT; settings: for Ki: BCLXL WT, Ki determined from IC50, read-out: TR_FRET EKI BclxL; for TR_FRET EKI BCLxL/WT selectivty ratio: ratio Ki BCLxL / Ki BCL2 WT
How it was run: as §1

BCL2 D103Y = BCL2 D103Y (Homo sapiens, UniProt P10415, D103Y); test: TR-FRET competitive binding assay, BCL2 D103Y; settings: Ki determined from IC50, read-out: TR_FRET EKI_Bcl2 D103Y
How it was run: as §1

BCL2 D111A = BCL2 D111A (Homo sapiens, UniProt P10415, D111A); test: TR-FRET competitive binding assay, BCL2 D111A; settings: Ki determined from IC50, read-out: TR_FRET EKI_Bcl2 D111A
How it was run: as §1

BCLXL WT, sequence (Q07817 other isoform, or with tags, fused parts or gaps): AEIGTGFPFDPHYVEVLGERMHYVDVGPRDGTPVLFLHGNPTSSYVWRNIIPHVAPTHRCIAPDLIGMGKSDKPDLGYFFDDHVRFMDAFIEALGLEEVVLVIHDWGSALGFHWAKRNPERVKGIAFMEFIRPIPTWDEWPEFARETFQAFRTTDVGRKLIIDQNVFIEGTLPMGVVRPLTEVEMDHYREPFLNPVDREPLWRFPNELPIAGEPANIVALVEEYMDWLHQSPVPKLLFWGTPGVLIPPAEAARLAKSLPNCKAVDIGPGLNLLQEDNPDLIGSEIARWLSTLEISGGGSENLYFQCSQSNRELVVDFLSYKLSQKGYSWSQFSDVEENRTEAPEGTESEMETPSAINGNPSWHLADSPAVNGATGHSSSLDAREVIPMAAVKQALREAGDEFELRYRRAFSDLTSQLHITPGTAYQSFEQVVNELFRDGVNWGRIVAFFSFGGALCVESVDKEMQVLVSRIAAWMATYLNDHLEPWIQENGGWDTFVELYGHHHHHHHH

SMILES | Ki (BCL2 F104I) | PK parameters Cinf [1] | AUC [1] | TR_FRET EKI G101V/WT selectivty ratio (BCL2 G101V [2]) | Ki (BCL2 G101V [3]) | IC50 (KMS-12-PE Bcl-2 WT) | Ki (BCL2 WT) | Platelet loss (%) 6 h (platelets) | Platelet loss (%) 24 h (platelets) | Ratio (G101V/WT) (KMS-12-PE Bcl-2 G101V) | IC50 (KMS-12-PE Bcl-2 G101V) | Ki (BCLXL WT) | TR_FRET EKI BCLxL/WT selectivty ratio (BCLXL WT) | Ki (BCL2 D103Y) | Ki (BCL2 D111A)
Cc1c(N(C(=O)c2cc(-c3cc4c(cc3C(=O)N3Cc5ccccc5C[C@H]3CN3CCCCC3)CN(C(=O)Cc3ccc(OCCC5CCOCC5)cc3F)CC4)n(C)c2C)c2ccc(O)cc2)cc(C#N)n1C [Example 34, N-(5-cyano-1,2-dimethylpyrrol-3-yl)-5-[2-(2-{2-fluoro-4-[2-(oxan-4-yl)ethoxy]phenyl}acetyl)-7-{[(3S)-3-(piperidin-1-ylmethyl)-3,4-dihydro-1H-isoquinolin-2-yl]carbonyl}-3,4-dihydro-1H-isoquinolin-6-yl]-N-(4-hydroxyphenyl)-1,2-dimethylpyrrole-3-carboxamide] | 270 pM | 8.2 µM | 9.7 µM·h | 2.6 | 900 pM | 0.0052 µM | 340 pM | 33.7% | 18.2% | 5.29 | 0.0275 µM | 5300 pM | 15.6 | 520 pM | 200 pM
Cc1c(N(C(=O)c2cc(-c3cc4c(cc3C(=O)N3Cc5ccccc5C[C@H]3C)CN(C(=O)Cc3ccc(OCCN5C[C@@H](C)O[C@@H](C)C5)cc3)CC4)n(C)c2C)c2ccc(O)cc2)cc(C#N)n1C [Example 39, N-(5-cyano-1,2-dimethyl-1H-pyrrol-3-yl)-5-{2-[2-(4-{2-[cis-2,6-dimethylmorpholin-4-yl]ethoxy}phenyl)acetyl]-7-[(3R)-3-methyl-1,2,3,4-tetrahydroisoquinoline-2-carbonyl]-1,2,3,4-tetrahydroisoquinolin-6-yl}-N-(4-hydroxyphenyl)-1,2-dimethyl-1H-pyrrole-3-carboxamide] | 460 pM | 26.5 µM | 26.7 µM·h | 3.5 | 700 pM | 0.0056 µM | 200 pM | 26.9% | 20.2% | 4.07 | 0.023 µM | 2300 pM | 11.5 | 710 pM | 180 pM
Cc1c(N(C(=O)c2cc(-c3cc4c(cc3C(=O)N3Cc5ccccc5C[C@H]3CN3CCOCC3)CN(C(=O)Cc3ccc(OCCC5CCOCC5)cc3F)CC4)n(C)c2C)c2ccc(O)cc2)cc(C#N)n1C [Example 54, N-(5-cyano-1,2-dimethyl-pyrrol-3-yl)-5-[2-[2-[2-fluoro-4-(2-tetrahydropyran-4-ylethoxy)phenyl]acetyl]-7-[(3S)-3-(morpholinomethyl)-3,4-dihydro-1H-isoquinoline-2-carbonyl]-3,4-dihydro-1H-isoquinolin-6-yl]-N-(4-hydroxyphenyl)-1,2-dimethyl-pyrrole-3-carboxamide] | 520 pM | 11.4 µM | 9.2 µM·h | 2.7 | 300 pM | 0.0057 µM | 100 pM | 28.6% | 22.5% | 4.23 | 0.024 µM | 2300 pM | 24.0 | 110 pM | 400 pM
Cc1c(N(C(=O)c2cc(-c3cc4c(cc3C(=O)N3Cc5ccccc5C[C@H]3C)CN(C(=O)Cc3ccc(OCCN5CCO[C@H](C)C5)cc3)CC4)n(C)c2C)c2ccc(O)cc2)cc(C#N)n1C [Example 56, N-(5-cyano-1,2-dimethyl-1H-pyrrol-3-yl)-N-(4-hydroxyphenyl)-1,2-dimethyl-5-{7-[(3R)-3-methyl-1,2,3,4-tetrahydroisoquinoline-2-carbonyl]-2-(2-{4-[2-((2R)-2-methylmorpholin-4-yl)ethoxy]phenyl}acetyl)-1,2,3,4-tetrahydroisoquinolin-6-yl}-1H-pyrrole-3-carboxamide] | 280 pM | 48.5 µM | 30.5 µM·h | 2.8 | 200 pM | 0.0048 µM | 60 pM | 43.5% | 26.9% | 4.21 | 0.0201 µM | 1600 pM | 26.7 | 190 pM | 170 pM
